Assay results from patent US10100079B2, “Progesterone-cationic lipid hybrid as anticancer agent and the process of synthesis thereof” (Council of Scientific & Industrial Research, priority 2016, dated 2018).

Key:
T47D = test: MTT cytotoxicity assay, T47D; assay type: cell-based; conditions: Homo sapiens, MTT, 48 h continuous treatment, read-out: IC50 T47D
Method: (§1) All cells were grown into mycoplasma free condition. […] All cells were grown up to 75-85% confluency after which cells were trypsinized, counted and seeded, in 96-well plates for cell viability studies, 6-well plates for apoptosis studies, 60 mm dish for cell cycle studies and in 25 cm^2 or 75 cm^2 tissue culture flasks for Western blot studies. The primary stock of the cationic progesterone molecules were made in cell culture grade DMSO and from that secondary stock was prepared by serial dilution with cell culture grade DMSO. The final working concentrations were prepared by diluting the secondary stock in cell culture media keeping the DMSO concentration in working solution below 0.2% with respect to cell culture medium. […] For this assay, 12-18 h before treatment cells were plated in 96-well plate at 5000 cells/well density. […] After completion of the treatment, 10 μL of MTT solution (5 mg/mL) was added in each well and incubated for 4 h. Then the media was removed carefully, and the reduced MTT was dissolved in 1:1 (v/v) DMSO/Methanol and absorbance was measured using multimode reader (Synergy H1, BioTek). Results were represented as percentage of viability={[A550(treated cells)−background]/[A550(untreated cells)−background]}×100. The result was summarized and provided as IC50 table in Table 1.

MCF7 = test: MTT cytotoxicity assay, MCF7; assay type: cell-based; conditions: Homo sapiens, MCF7; MTT, 48 h continuous treatment; read-out: IC50 MCF7
Method: as §1

OVCAR-3 = test: MTT cytotoxicity assay, OVCAR-3; assay type: cell-based; conditions: Homo sapiens, OVCAR-3; MTT, 48 h continuous treatment; read-out: IC50 OVCAR-3
Method: as §1

B16F10 = test: MTT cytotoxicity assay, B16F10; assay type: cell-based, murine; conditions: Mus musculus, B16-F10; MTT, 48 h continuous treatment; read-out: IC50 B16F10
Method: as §1

MDA-MB-231 = test: MTT cytotoxicity assay, MDA-MB-231; assay type: cell-based, human; conditions: Homo sapiens, MDA-MB-231; MTT, 48 h continuous treatment; read-out: IC50 MDA-MB-231
Method: as §1

NIH-3T3 = test: MTT cytotoxicity assay, NIH-3T3; assay type: cell-based, murine; conditions: Mus musculus, NIH3T3; MTT, 48 h continuous treatment, non-cancer cell; read-out: IC50 NIH-3T3
Method: as §1

CHO = test: MTT cytotoxicity assay, CHO; assay type: cell-based, Chinese hamster; conditions: Cricetulus griseus, MTT, 48 h continuous treatment, non-cancer cell, read-out: IC50 CHO
Method: as §1

COS-1 = test: MTT cytotoxicity assay, COS-1; assay type: cell-based; conditions: Chlorocebus aethiops, COS-1; MTT, 48 h continuous treatment, non-cancer cell; read-out: IC50 COS-1
Method: as §1

[1] = system: cancer cells T47D, OVCAR-3, MDA-MB-231, MCF-7 and B16F10; test: MTT viability, all tested cancer cells (combination treatment study, FIG. 1A); assay type: cell-based; conditions: 48 h, 2.5 μM-40 μM
Method: FIG. 1A: The viability studies of cancer cells T47D, OVCAR-3, MDA-MB-231, MCF-7 and B16F10 after 48 h of continuous treatment with compound 1 (10 μM), 10C [cationic lipid control molecule not containing progesterone moiety]
(§2) Cytotoxicity assay of the different compounds were carried out by using 3-(4,5-dimethylthiazol-2-yl)-2,5-diphenyltetrazolium bromide (MTT). For this assay, 12-18 h before treatment cells were plated in 96-well plate at 5000 cells/well density. After incubation cells were treated continuously for 48 h with respective compounds at different concentration (2.5 μM-40 μM). After completion of the treatment, 10 μL of MTT solution (5 mg/mL) was added in each well and incubated for 4 h. Then the media was removed carefully, and the reduced MTT was dissolved in 1:1 (v/v) DMSO/Methanol and absorbance was measured using multimode reader (Synergy H1, BioTek). Results were represented as percentage of viability={[A550(treated cells)−background]/[A550(untreated cells)−background]}×100. The result was summarized and provided as IC50 table in Table 1.
(§3) For combination treatment effect, cells were plated in 96 well plates at 5000 cells/well. […] Following 48 h of treatment cell viability was measured following above mentioned MTT study.

[2] = system: non-cancer cells CHO, COS-1 and NIH-3T3; test: MTT viability, tested non-cancer cells (combination treatment study, FIG. 1B); assay type: cell-based; conditions: 48 h, 2.5 μM-40 μM
Method: FIG. 1B: The viability studies of non-cancer cells CHO, COS-1 and NIIH-3T3 after 48 h of continuous treatment with compound 1 (10 μM), 10C [cationic lipid control molecule not containing progesterone moiety]
as §2, §3

SMILES | IC50 (T47D) [µM] | IC50 (MCF7) [µM] | IC50 (OVCAR-3) [µM] | IC50 (B16F10) [µM] | IC50 (MDA-MB-231) [µM] | IC50 (NIH-3T3) [µM] | IC50 (CHO) [µM] | IC50 (COS-1) [µM] | cell killing in all tested cancer cells [1] | toxicity towards tested non-cancer cells [2]
CCCCCCCC[N+](C)(CCCCCCCC)CCNC(=O)CCC(=O)O[C@@H](C)[C@H]1CCC2C3CCC4=CC(=O)CC[C@]4(C)C3CC[C@@]21C.[Cl-] (stereo partly drawn) [Compound 6b, N-(2-(4-((1S)-1-((10R,13S,17S)-10,13-dimethyl-3-oxo-2,3,6,7,8,9,10,11,12,13,14,15,16,17-tetradecahydro-1H-cyclopenta[a]phenanthren-17-yl)ethoxy)-4-oxobutanamido)ethyl)-N-methyl-N-octyloctan-1-aminium chloride] | 4.07 ± 0.23 | 8.28 ± 0.12 | 11.9 ± 0.45 | 9.95 ± 0.32 | 8.56 ± 0.52 | > 20 | 17 ± 0.41 | > 20 | significant amount of cell killing | largely non-toxic
CCCCCC[N+](C)(CCCCCC)CCNC(=O)CCC(=O)O[C@@H](C)[C@H]1CCC2C3CCC4=CC(=O)CC[C@]4(C)C3CC[C@@]21C (stereo partly drawn) [Compound 6a, N-(2-(4-((1S)-1-((10R,13S,17S)-10,13-dimethyl-3-oxo-2,3,6,7,8,9,10,11,12,13,14,15,16,17-tetradecahydro-1H-cyclopenta[a]phenanthren-17-yl)ethoxy)-4-oxobutanamido)ethyl)-N-hexyl-N-methylhexan-1-aminium chloride] | 7.43 ± 0.76 | > 15 | 13.9 ± 0.53 | > 15 | 5.78 ± 0.38 | > 20 | 17.9 ± 0.56 | > 20 |  | 
CCCCCCCCCCCCCCCC[N+](C)(CCCCCCCCCCCCCCCC)CCNC(=O)CCC(=O)O[C@@H](C)[C@H]1CCC2C3CCC4=CC(=O)CC[C@]4(C)C3CC[C@@]21C (stereo partly drawn) [Compound 6f, N-(2-(4-((1S)-1-((10R,13S,17S)-10,13-dimethyl-3-oxo-2,3,6,7,8,9,10,11,12,13,14,15,16,17-tetradecahydro-1H-cyclopenta[a]phenanthren-17-yl)ethoxy)-4-oxobutanamido)ethyl)-N-hexadecyl-N-methylhexadecan-1-aminium chloride] | > 15 | > 15 | > 15 | > 15 | > 15 | > 20 | > 15 | > 20 |  | 
CCCCCCCCCCCCCCCCCC[N+](C)(CCCCCCCCCCCCCCCCCC)CCNC(=O)CCC(=O)O[C@@H](C)[C@H]1CCC2C3CCC4=CC(=O)CC[C@]4(C)C3CC[C@@]21C (stereo partly drawn) [Compound 6g, N-(2-(4-((1S)-1-((10R,13S,17S)-10,13-dimethyl-3-oxo-2,3,6,7,8,9,10,11,12,13,14,15,16,17-tetradecahydro-1H-cyclopenta[a]phenanthren-17-yl)ethoxy)-4-oxobutanamido)ethyl)-N-methyl-N-octadecyloctadecan-1-aminium chloride] | > 15 | > 15 | > 15 | > 15 | > 15 | > 20 | > 15 | > 20 |  | 
CCCCCCCCCCCC[N+](C)(CCCCCCCCCCCC)CCNC(=O)CCC(=O)O[C@@H](C)[C@H]1CCC2C3CCC4=CC(=O)CC[C@]4(C)C3CC[C@@]21C.[Cl-] (stereo partly drawn) [Compound 6d, N-(2-(4-((1S)-1-((10R,13S,17S)-10,13-dimethyl-3-oxo-2,3,6,7,8,9,10,11,12,13,14,15,16,17-tetradecahydro-1H-cyclopenta[a]phenanthren-17-yl)ethoxy)-4-oxobutanamido)ethyl)-N-dodecyl-N-methyldodecan-1-aminium chloride] | 12.8 ± 0.43 | 7.04 ± 0.28 | 6.83 ± 0.13 | 9.54 ± 0.18 | 6.36 ± 0.19 | > 20 | 17.5 ± 0.18 | > 20 | significant amount of cell killing | largely non-toxic
CCCCCCCCCCCCCC[N+](C)(CCCCCCCCCCCCCC)CCNC(=O)CCC(=O)O[C@@H](C)[C@H]1CCC2C3CCC4=CC(=O)CC[C@]4(C)C3CC[C@@]21C (stereo partly drawn) [Compound 6e, N-(2-(4-((1S)-1-((10R,13S,17S)-10,13-dimethyl-3-oxo-2,3,6,7,8,9,10,11,12,13,14,15,16,17-tetradecahydro-1H-cyclopenta[a]phenanthren-17-yl)ethoxy)-4-oxobutanamido)ethyl)-N-methyl-N-tetradecyltetradecan-1-aminium chloride] | > 15 | > 15 | > 15 | > 15 | > 15 | > 20 | > 15 | > 20 |  | 
